# Several values for one entry are separate records, joined by “and”; a condition that tells them apart may be missing. Equal values may be shown once. Read-outs that look alike come from different tables or passages of the source.
# What was measured:
# [1] = test system: TSLP production in NHBE cells; assay: TSLP HTRF assay (TSLP production in poly I:C / IL-4 stimulated NHBE cells); assay type: cell-based, human; parameters: Inhibition of TSLP production in NHBE (% as indicated): concentration or dose not given beside the values
# Description: For dose response curves determinations, stocks of test compounds at a concentration of 1.33x10^-3 M in DMSO were sequentially diluted at 1:4 dilution steps before further 1/50 dilution in BEBM medium containing 1x ITS and 0.1% BSA. For the highest 4 μM concentration test compounds were resuspended in DMSO at a concentration of 2.5x10^-3 M and diluted 1/25 in BEBM medium containing 1x ITS and 0.1% BSA before adding 1 μl to the wells containing the cells.
# All subsequent steps were automated using a Sciclone® G3 workstation (Perkin Elmer) with a Twister™ II robot (Perkin Elmer). […] 1 μl of test compound solution prepared at 25x concentration was added to the wells containing NHBE cells. The plates were then incubated during 90 minutes at 37°C, 5% CO2, 90% humidity before adding poly I:C (Invivogen HMW Tirl-pic-5) and human IL-4 (Peprotech 200–04) stimulus in 4 μl of BEBM medium containing 1x ITS, 0.1% BSA and 0.1% DMSO using a Multidrop™. […] Cells were then incubated for 24h in the presence of test compounds and stimulus at 37°C, 5% CO2 and 90% humidity conditions. After the 24h incubation period the plates were transferred to a CyBi®-Well platform (CyBio AG) to collect 10 μl of the supernatants which were transferred to a new plate. TSLP levels in the supernatant were determined using a homogeneous Time-Resolved Fluorescence (HTRF) assay custom developed by Cisbio. The assay was based in the use of a donor dye (europium cryptate) coupled to a monoclonal anti-TSLP antibody and an acceptor dye (d2) coupled to a second polyclonal anti-TSLP antibody. […] 10 μl of the resulting solution was then used to determine TSLP levels as described above.
# The standard curve was built with eight points prepared in ITS/BSA in BEBM medium without supplements, starting at 700 pg/ml and diluted 1:2, with medium alone being zero TSLP. Fitting model corresponded to equation 100 of Excel fit software. Data from the primary phenotypic screen was visualized using Vortex (Dotmatics). […] For compound selection the maximum inhibition of the two individual duplicate values was taken into account. Dose response confirmation was performed at single point in the 2 donors tested. 9 point curves were run starting at 4 μM concentration by doing serial 1:4 dilutions in cells derived from both donors.
# CHO-K1 cells = assay: CHO-K1 viability (ATPlite); assay type: cell-based
# Description: The viability of NHBE and CHO-K1 cells was quantified using ATP as an indirect read out of the potential cytotoxicity of the compounds. […] Plates were shaken and covered with aluminium foil for 25 min. Luminescence was measured in an Envision reader (Perkin Elmer). Evaluation of viability in CHO-K1 cells was used as an internal compound cytotoxicity standard across cellular assays. […] The plates were incubated for 24 h at 37°C in 5% CO2. After the incubation period, the culture medium was removed and washed with 100 μl of DPBS. Test compounds were dissolved and serially diluted in 100% DMSO. A final 1/100 dilution of each concentration was performed using F12 culture medium with 0.5% FBS. A volume of 100 μl culture medium containing the compounds or 1% DMSO (for control wells) was added to the wells containing the cells and the plate was incubated again 24h. After 24h of compound exposure, cells were washed with DPBS. Then, 100 μl of PBS were added, followed by the addition of 100 μl of ATPlite™ reagent. The plate was shaken for 25 minutes using a microtiter plate shaker. Luminescence was measured using a Luminoskan Ascent luminometer (Thermo Fisher Scientific).
# For CHO-K1 viability assays, a standard curve of cells was included in the plate. Luminescence values versus cell number were plotted and the data adjusted to a linear equation. Luminescence values of the samples were interpolated to obtain number of cells. IC50 values were obtained by non-linear regression using Activity Base software (IDBS) and a four-parameter log equation.
# [2] = test system: TBK1/IKKɛ, PDK-1, Aurora B, ERK8, MARK, NUAK1, MLK, c-Kit, CDK2/CyclinE, Chk1, GSK-3β, PKA, KDR, T-Fyn and PCK; parameters: method as in PMID 19307177; settings: read-out: IC50 on BX795 targets within the pharmacological range; cited from earlier work
# mTOR = target: T1, mTOR (Homo sapiens, UniProt P42345); settings: read-out: reported kinase inhibitory activity (IC50); cited from earlier work
# T1 construct: Eurofins Pharma Discovery Services (contract assay service)
# [3] = test system: TSLP mRNA levels in NHBE cells; assay: TSLP mRNA real-time PCR (qPCR) in NHBE cells; assay type: cell-based, human; parameters: TSLP mRNA upregulation (% versus control) / % Inhibition of mRNA: dose or concentration left out as unconfirmed; settings: for % Inhibition of mRNA at [4 μM] ± SD: NHBE donor #1, 6 h stimulation; for % Inhibition of mRNA: individual values, donor #1
# [4] = Homo sapiens, NHBE, 24 h, NHBE cells donor #1, poly I:C / IL-4, 24h, geometric mean, read-out: Inhibition of TSLP protein production (IC50, μM) (95% CI)
# [5] = individual values, donor #1, read-out: Inhibition of TSLP production in NHBE (IC50)
Structure (SMILES),"IC50 [1, 4]","IC50 [1, 5]",% Inhibition of mRNA at [4 μM] ± SD [3],% Inhibition of mRNA [3],further results
"COc1ccc(-c2ccc3c(N4CCOC[C@@H]4C)nc(N4CCOC[C@@H]4C)nc3n2)cc1CO [AZD8055, reference compound]",0.002 µM,0.00097 µM and 0.00482 µM and 0.00467 µM,–,–,Inhibition of CHO viability % Inhibition ± SD at 3.12 μM (CHO-K1 cells): 20.47% ± 4.6 (n = 4)
"O=C(NCCCNc1nc(Nc2cccc(NC(=O)N3CCCC3)c2)ncc1I)c1cccs1 [BX795, reference compound]",–,–,–,–,"IC50 ([1]; Homo sapiens, NHBE, donor #1, representative curve, read-out: IC50): 0.0591 µM; IC50 ([1]; Homo sapiens, NHBE, donor #2, representative curve, read-out: IC50): 0.079 µM; IC50 ([1]; individual values, donor #1, read-out: Inhibition of TSLP production in NHBE (IC50, mM) by BX795, Donor #1): 0.048 µM and 0.059 µM and 0.168 µM and 0.177 µM; IC50 ([1]; individual values, donor #2, read-out: Inhibition of TSLP production in NHBE (IC50, mM) by BX795, Donor #2): 0.198 µM and 0.078 µM and 0.183 µM and 0.143 µM; IC50 [2]: < 1000 nM"
"CO[C@H]1C[C@@H]2CC[C@@H](C)[C@@](O)(O2)C(=O)C(=O)N2CCCC[C@H]2C(=O)O[C@H]([C@H](C)C[C@@H]2CC[C@@H](OCCO)[C@H](OC)C2)CC(=O)[C@H](C)/C=C(\C)[C@@H](O)[C@@H](OC)C(=O)[C@H](C)C[C@H](C)/C=C/C=C/C=C/1C [Everolimus, reference compound]",–,–,–,–,"inhibition at 0.031 µM ([1]; Homo sapiens, 0.031 μM, NHBE donor #1, read-out: Inhibition of TSLP protein production % Inhibition ± SD at): 79.4%; Inhibition of TSLP production in NHBE (% as indicated) ([1]; individual values, donor #1): 62.23% and 73.18% and 78.84% and 103.38%; Inhibition of CHO viability % Inhibition ± SD at 3.12 μM (CHO-K1 cells): -0.16% ± 2.3 (n = 4); IC50 (mTOR): 1 to 2 nM"
"COC(=O)Nc1nc2ccc(C(=O)c3cccs3)cc2[nH]1 [Nocodazole, reference compound]",0.9 µM,1.23 µM and 0.512 µM and 1.16 µM,84.62 ± 1.76%,83.366% and 85.867%,–
"C[C@@H]1O[C@@H](O[C@H]2C[C@@H](O)[C@]3(CO)[C@H]4[C@H](O)C[C@]5(C)[C@@H](C6=CC(=O)OC6)CC[C@]5(O)[C@@H]4CC[C@]3(O)C2)[C@H](O)[C@H](O)[C@H]1O [Ouabain, reference compound]",0.016 µM,0.013 µM and 0.014 µM,94.64 ± 0.33%,94.409% and 94.877%,"IC50 ([1]; Homo sapiens, NHBE, individual values, donor #1, read-out: Inhibition of TSLP production in NHBE (IC50)): 0.022 µM"
"C[C@@H]1CCN(C(=O)CC#N)C[C@@H]1N(C)c1ncnc2[nH]ccc12 [Tofacitinib, reference compound]",–,–,–,–,Inhibition of CHO viability at [25 μM] % Inhibition ± SD (CHO-K1 cells; 25 μM): 0.37 ± 4.3%
COc1ccc(N(C)c2nc(NC/C=C(\C)CCC=C(C)C)nc3ccccc23)cc1 [compound 6],0.101 µM,0.121 µM and 0.062 µM and 0.141 µM,95.04 ± 0.77%,95.589% and 94.492%,–
